According to article PMC11923649, “Novel C-2 Aromatic Heterocycle-Substituted Triterpenoids Inhibit Hedgehog Signaling in GLI1 Overexpression Cancer Cells” (ACS Omega, 2025):

What was measured:
[1] = test system: NCI-H322 (NSCLC, low GLI1); assay: MTS cytotoxicity assay, 72 h, NCI-H322; assay type: cell-based, human; settings: compared with A549
Description: (§1) Concerning nonsmall cell lung carcinoma (NSCLC)-derived cell lines, we selected two subtype groups with different expression levels of GLI1, based on a study by Yuan et al.[35] The first group includes cell lines where GLI1 is highly expressed (A549 and NCI-H522), while the second group includes low GLI1-expressing cell lines (HOP-62 and NCI-H322). It has been established that cell lines expressing high levels of GLI1 are relatively resistant to SMO antagonists due to a hyper-activated HH signaling pathway.[35] […] These interesting findings may indicate the potential of 11b to overcome hyper-activated HH signaling in particular NSCLC subsets. […] Lower activity was observed against medulloblastoma (DAYO) and glioblastoma (T98G)-derived cell lines with an IC50 above 20 μmol/L.
(§2) The human prostate tumor-derived cell line DU145 was obtained from ATCC (American Type Culture Collection) and cultured in RPMI 1640 (Roswell Park Memorial Institute) medium supplemented with 10% (v/v) fetal bovine serum (FBS). Human prostate tumor-derived LNCaP cells were obtained from ATCC and cultured in RPMI 1640 medium supplemented with 10% FBS. […] Finally, the absorbance at 490 nm was measured using an EnVision multifunctional modular reader (PerkinElmer). The IC50 value was determined using Dotmatics software.

T98G (glioblastoma) = assay: MTS cytotoxicity assay, 72 h, T98G; assay type: cell-based; settings: Homo sapiens
Description: as §1, §2

HOP-62 (NSCLC, low GLI1) = assay: MTS cytotoxicity assay, 72 h, HOP-62; assay type: cell-based, human; settings: compared with A549
Description: as §1, §2

DAOY (medulloblastoma) = assay: MTS cytotoxicity assay, 72 h, DAOY; assay type: cell-based; settings: Homo sapiens, read-out: IC50 medulloblastoma (DAYO)
Description: as §1, §2

For `C=C(C)[C@@H]1CC[C@]2(C(=O)O)CC[C@]3(C)C(CCC4[C@@]5(C)C=C(c6ccoc6)C(=O)C(C)(C)C5CC[C@]43C)C12` (stereo partly shown) [Compound 11b, 2-(Furan-3-yl)-3-oxolupa-1,20(29)-dien-28-oic acid], the “IC50 of NCI-H322 relative to A549” value [1] was “almost two times higher”, the IC50 (T98G (glioblastoma)) was > 20 µM and the “IC50 of HOP-62 relative to A549” value (HOP-62 (NSCLC, low GLI1)) was “almost two times higher”. For the same molecule, the IC50 (DAOY (medulloblastoma)) was > 20 µM.
